system: PC3 cells; assay: xCELLigence RTCA real-time cell invasion assay (CIM plate, Matrigel) on PC3 prostate cancer cells; format: cell-based; settings: Homo sapiens, PC-3, compound 25 uM to 1 uM, cell index monitored for 72 hours, four-parameter dose-response curve, read-out: IC50, Effect of compounds on the invention on prostate cancer cells
Experimental: The media antibiotics and serum were purchased from Invitrogen (Life Technologies). PC3 cells were purchased from ATCC (Granville, NSW, Australia). PC3 cells were expanded in cell culture T75 flasks with vented cap and then preserved in low passage number. The medium used for PC3 cells was RPMI (GlutaMAX) supplemented with 10% FCS and 1% penicillin/streptomycin (culture media). The cells were maintained at 37° C. in a humidified 95% (v/v) air/5% (v/v) CO2 environment and were grown up to 80% confluence.
XCELLigence® real-time cell analysis (RTCA) instrument (ACEA Biosciences), 16-well ACEA CIM-Plates, 16-well ACEA E-Plat and assembly tool were purchased from ELITechGroup empowering IVD (Braeside, Australia). The Matrigel was purchased from Corning (Australia).
To measure cell invasion under compound treatment the upper chamber of the CIM plate was coated with 5% Matrigel diluted in SF RPMI (20 μl) and incubated in a 37° C. tissue culture incubator for four hours. Using the assembly tool to support the chambers the lower chamber was filled with (160 μl) of culture media containing the compound in specific concertation from 25 uM to 1 uM and two controls (DMSO 0.1% and ESFAM 4C 10 uM) (see the schematic in FIG. 1). Once the upper chamber was placed on the top of the lower chamber it was loaded with (40 μl) serum-free (SF) RPMI containing the compound as previously stated. After one hour calibration in 37° C., plates were placed into the xCELLigence station, and the base-line electric impedance was measured to confirm that all wells and connections were working properly. In case of connection problem, the software automatically informs the researcher about the nature of the problem in the message section. Subsequently cells were trypsinized and upon harvesting and counting they were diluted in SF RPMI to desired density (3×10^4) and seeded (100 μl) in the wells. After 30 minutes of incubation in room-temperature to allow cell attachment the plates were loaded in the xCELLigence RTCA DP machine. The cell invasion was monitored in real-time for the duration of 72 hours. […]
The xCELLigence system automatically monitored the electrical impedance value of each well and expressed as a cell index (CI) value for the duration of 72 hours. The data for treatments was automatically grouped as the mean±standard deviation. The software version used in these experiments is 1.2.1. The electronic record of the experimental data is automatically saved in file that cannot be altered or changed by the researcher.
Statistical analysis was performed using Microsoft® Office EXCEL and GraphPad Prism 7. The IC50 was calculated from the four-parameter dose-response curve (log(inhibitor) vs. response-variable slopes). Where the row-data was inserted in GraphPad Prism 7 (Dose response x-log(dose)) and analysed for XY nonlinear regression (curve fit), dose response-inhibition, log(inhibitor) vs response variable slope (four parameters). For the IC90 calculation the log(IC50)=log(IC90)-(1/HillSlope)*log(9) equation was used in EXCEL based on the raw data extracted from xCELLigence system and the dose-response curve.

Question: With `CC(C)Oc1ccc(NC(=O)c2cc3nc(N4Cc5ccccc5C4)cc(-c4cn[nH]c4)n3n2)cc1` [Compound 56, 5-(isoindolin-2-yl)-N-(4-isopropoxyphenyl)-7-(1H-pyrazol-4-yl)pyrazolo[1,5-a]pyrimidine-2-carboxamide] as the compound, how does the IC50 read?
Answer: 2.83 µM

Question: Which IC50 does the source give for `COc1cccc(NC(=O)c2cc3nc(N4Cc5ccccc5C4)cc(-c4cnn(C)c4)n3n2)c1` [Compound 57, 5-(isoindolin-2-yl)-N-(3-methoxyphenyl)-7-(1-methyl-1H-pyrazol-4-yl)pyrazolo[1,5-a]pyrimidine-2-carboxamide] here?
Answer: 2.59 µM

Question: `Cn1cc(-c2cc(N3Cc4ccccc4C3)nc3cc(C(=O)Nc4cccc(O)c4)nn23)cn1` [Compound 58, N-(3-hydroxyphenyl)-5-(isoindolin-2-yl)-7-(1-methyl-1H-pyrazol-4-yl)pyrazolo[1,5-a]pyrimidine-2-carboxamide] was tested. Which IC50 did it give?
Answer: 10.1 µM

Question: How did the IC50 turn out when `COc1cccc(NC(=O)c2cc3nc(N4Cc5ccccc5C4)cc(-c4c(C)nn(C)c4C)n3n2)c1` [Compound 59, 5-(isoindolin-2-yl)-N-(3-methoxyphenyl)-7-(1,3,5-trimethyl-1H-pyrazol-4-yl)pyrazolo[1,5-a]pyrimidine-2-carboxamide] was run?
Answer: 4.38 µM

Question: How did the IC50 turn out when `Cc1nn(C)c(C)c1-c1cc(N2Cc3ccccc3C2)nc2cc(C(=O)Nc3cccc(O)c3)nn12` [Compound 60, N-(3-hydroxyphenyl)-5-(isoindolin-2-yl)-7-(1,3,5-trimethyl-1H-pyrazol-4-yl)pyrazolo[1,5-a]pyrimidine-2-carboxamide] was run?
Answer: 7.39 µM

Question: How did the IC50 turn out when `COc1cccc(NC(=O)c2cc3nc(N4Cc5ccc(Cl)cc5C4)cc(-c4cn[nH]c4)n3n2)c1` [Compound 61, 5-(5-chloroisoindolin-2-yl)-N-(3-methoxyphenyl)-7-(1H-pyrazol-4-yl)pyrazolo[1,5-a]pyrimidine-2-carboxamide] was run?
Answer: 3.68 µM

Question: For `O=C(Nc1cccc(O)c1)c1cc2nc(N3Cc4ccc(Cl)cc4C3)cc(-c3cn[nH]c3)n2n1` [Compound 62, 5-(5-chloroisoindolin-2-yl)-N-(3-hydroxyphenyl)-7-(1H-pyrazol-4-yl)pyrazolo[1,5-a]pyrimidine-2-carboxamide], which IC50 is on record?
Answer: 5.22 µM

Question: How did the IC50 turn out when `COc1cccc(NC(=O)c2cc3nc(N4Cc5ccc(F)cc5C4)cc(-c4cn[nH]c4)n3n2)c1` [Compound 63, 5-(5-fluoroisoindolin-2-yl)-N-(3-methoxyphenyl)-7-(1H-pyrazol-4-yl)pyrazolo[1,5-a]pyrimidine-2-carboxamide] was run?
Answer: 4.65 µM

Question: Which IC50 does the source give for `O=C(Nc1cccc(O)c1)c1cc2nc(N3Cc4ccc(F)cc4C3)cc(-c3cn[nH]c3)n2n1` [Compound 64, 5-(5-fluoroisoindolin-2-yl)-N-(3-hydroxyphenyl)-7-(1H-pyrazol-4-yl)pyrazolo[1,5-a]pyrimidine-2-carboxamide] here?
Answer: 9.59 µM

Question: With `COc1cccc(NC(=O)c2nn3c(-c4cn[nH]c4)cc(N4Cc5ccccc5C4)nc3c2C)c1` [Compound 66, 5-(isoindolin-2-yl)-N-(3-methoxyphenyl)-3-methyl-7-(1H-pyrazol-4-yl)pyrazolo[1,5-a]pyrimidine-2-carboxamide] as the compound, how does the IC50 read?
Answer: 19.7 µM

Question: How did the IC50 turn out when `Cc1c(C(=O)Nc2cccc(OC(F)(F)F)c2)nn2c(-c3cn[nH]c3)cc(N3Cc4ccccc4C3)nc12` [Compound 67, 5-(isoindolin-2-yl)-3-methyl-7-(1H-pyrazol-4-yl)-N-(3-(trifluoromethoxy)phenyl)pyrazolo[1,5-a]pyrimidine-2-carboxamide] was run?
Answer: 5.94 µM

Question: How did the IC50 turn out when `Cc1c(C(=O)Nc2cccc(O)c2)nn2c(-c3cn[nH]c3)cc(N(C)Cc3ccccc3)nc12` [Compound 68, 5-(benzyl(methyl)amino)-N-(3-hydroxyphenyl)-3-methyl-7-(1H-pyrazol-4-yl)pyrazolo[1,5-a]pyrimidine-2-carboxamide] was run?
Answer: 5.76 µM

Question: How did the IC50 turn out when `COc1cccc(NC(=O)c2nn3c(-c4cn[nH]c4)cc(N(C)Cc4ccccc4)nc3c2C)c1` [Compound 69, 5-(benzyl(methyl)amino)-N-(3-methoxyphenyl)-3-methyl-7-(1H-pyrazol-4-yl)pyrazolo[1,5-a]pyrimidine-2-carboxamide] was run?
Answer: 1.9 µM

Question: For `Cc1c(C(=O)Nc2cccc(OC(F)(F)F)c2)nn2c(-c3cn[nH]c3)cc(N(C)Cc3ccccc3)nc12` [Compound 70, 5-(benzyl(methyl)amino)-3-methyl-7-(1H-pyrazol-4-yl)-N-(3-(trifluoromethoxy)phenyl)pyrazolo[1,5-a]pyrimidine-2-carboxamide], which IC50 is on record?
Answer: 5.87 µM

Question: For `CC(C)c1c(C(=O)Nc2cccc(O)c2)nn2c(-c3cn[nH]c3)cc(N3Cc4ccccc4C3)nc12` [Compound 71, N-(3-hydroxyphenyl)-5-(isoindolin-2-yl)-3-isopropyl-7-(1H-pyrazol-4-yl)pyrazolo[1,5-a]pyrimidine-2-carboxamide], which IC50 is on record?
Answer: 3.15 µM

Question: How did the IC50 turn out when `COc1cccc(NC(=O)c2nn3c(-c4cn[nH]c4)cc(N4Cc5ccccc5C4)nc3c2C(C)C)c1` [Compound 72, 5-(isoindolin-2-yl)-3-isopropyl-N-(3-methoxyphenyl)-7-(1H-pyrazol-4-yl)pyrazolo[1,5-a]pyrimidine-2-carboxamide] was run?
Answer: 2.91 µM

Question: Which IC50 does the source give for `CC(C)c1c(C(=O)Nc2cccc(OC(F)(F)F)c2)nn2c(-c3cn[nH]c3)cc(N3Cc4ccccc4C3)nc12` [Compound 73, 5-(isoindolin-2-yl)-3-isopropyl-7-(1H-pyrazol-4-yl)-N-(3-(trifluoromethoxy)phenyl)pyrazolo[1,5-a]pyrimidine-2-carboxamide] here?
Answer: 4.91 µM

Question: For `CC(C)c1c(C(=O)Nc2cccc(O)c2)nn2c(-c3cn[nH]c3)cc(N(C)Cc3ccccc3)nc12` [Compound 74, 5-(benzyl(methyl)amino)-N-(3-hydroxyphenyl)-3-isopropyl-7-(1H-pyrazol-4-yl)pyrazolo[1,5-a]pyrimidine-2-carboxamide], which IC50 is on record?
Answer: 1.34 µM

Question: For `COc1cccc(NC(=O)c2nn3c(-c4cn[nH]c4)cc(N(C)Cc4ccccc4)nc3c2C(C)C)c1` [Compound 75, 5-(benzyl(methyl)amino)-3-isopropyl-N-(3-methoxyphenyl)-7-(1H-pyrazol-4-yl)pyrazolo[1,5-a]pyrimidine-2-carboxamide], which IC50 is on record?
Answer: 5.68 µM

Question: For `CC(C)c1c(C(=O)Nc2cccc(OC(F)(F)F)c2)nn2c(-c3cn[nH]c3)cc(N(C)Cc3ccccc3)nc12` [Compound 76, 5-(benzyl(methyl)amino)-3-isopropyl-7-(1H-pyrazol-4-yl)-N-(3-(trifluoromethoxy)phenyl)pyrazolo[1,5-a]pyrimidine-2-carboxamide], which IC50 is on record?
Answer: 11.6 µM

Question: `COc1cccc(NC(=O)c2nn3c(-c4cn[nH]c4)cc(N4Cc5ccc(F)cc5C4)nc3c2C(C)C)c1` [Compound 77, 5-(5-fluoroisoindolin-2-yl)-3-isopropyl-N-(3-methoxyphenyl)-7-(1H-pyrazol-4-yl)pyrazolo[1,5-a]pyrimidine-2-carboxamide] was tested. Which IC50 did it give?
Answer: 11 µM

Question: `CC(=O)Nc1cccc(NC(=O)c2nn3c(-c4cn[nH]c4)cc(N4Cc5ccc(F)cc5C4)nc3c2C(C)C)c1` [Compound 78, N-(3-acetamidophenyl)-5-(5-fluoroisoindolin-2-yl)-3-isopropyl-7-(1H-pyrazol-4-yl)pyrazolo[1,5-a]pyrimidine-2-carboxamide] was tested. Which IC50 did it give?
Answer: 3.03 µM

Question: For `CC(=O)N1CCN(c2cccc(NC(=O)c3nn4c(-c5cn[nH]c5)cc(N5Cc6ccc(F)cc6C5)nc4c3C(C)C)c2)CC1` [Compound 79, N-(3-(4-acetylpiperazin-1-yl)phenyl)-5-(5-fluoroisoindolin-2-yl)-3-isopropyl-7-(1H-pyrazol-4-yl)pyrazolo[1,5-a]pyrimidine-2-carboxamide], which IC50 is on record?
Answer: 4.05 µM

Question: `CC(=O)N1CCN(c2ccc(NC(=O)c3nn4c(-c5cn[nH]c5)cc(N5Cc6ccc(F)cc6C5)nc4c3C(C)C)cc2)CC1` [Compound 80, N-(4-(4-acetylpiperazin-1-yl)phenyl)-5-(5-fluoroisoindolin-2-yl)-3-isopropyl-7-(1H-pyrazol-4-yl)pyrazolo[1,5-a]pyrimidine-2-carboxamide] was tested. Which IC50 did it give?
Answer: 1 µM

Question: `COc1cccc(NC(=O)c2nn3c(-c4cn[nH]c4)cc(N4Cc5ccc(Cl)cc5C4)nc3c2C(C)C)c1` [Compound 81, 5-(5-chloroisoindolin-2-yl)-3-isopropyl-N-(3-methoxyphenyl)-7-(1H-pyrazol-4-yl)pyrazolo[1,5-a]pyrimidine-2-carboxamide] was tested. Which IC50 did it give?
Answer: 2.45 µM

— patent publication US12215112B2, “CD151 inhibitors” (ESFAM BIOTECH PTY LTD, priority 2020, dated 2025)
